# Measured values as given in patent publication US6458808B1, “Pharmaceutical composition for the treatment of cognitive cerebrovascular disease” (Osmotica Corp., priority 2000, dated 2002).
# How the values were obtained:
# [1] = in vivo; cited from earlier work
# [2] = oral, multiple doses of 45 or 100 mg, healthy volunteers; cited from earlier work
# [3] = system: patients having either mild or very mild cognitive deterioration; experiment: Double-blind 16-week clinical trial (CDR, Barthel's, Folstein's tests, Global Clinical Impression); type: in vivo, human; details: for Global Clinic Impression: after 16-week treatment, code 1 highly worsened, 4 unchanged, 5 slightly improved, 6 improved, 7 highly improved; for BARTHEL's test, final mark / CDR test, final mark / FOLSTEIN's test, final mark: group average after 16-week treatment, twice a day; for FOLSTEIN's test, final mark: higher mark = favorable; for BARTHEL's test, initial mark / FOLSTEIN's test, initial mark / CDR test, initial mark: group average at baseline, before 16-week treatment; for CDR test, initial mark: twice a day oral
# Excerpt: Seventy nine patients having either mild or very mild cognitive deterioration with the following inclusion criterion:
# Antecedents of ischaemic cerebrovascular pathology with symptoms or only with expression in brain computerized tomography (silent infarct). In case of focal or acute multimodal symptoms, at least a three-month period should elapse since symptoms evidence before being included in the tests.
# Severity of cognitive deterioration was of the very mild or mild type CDR scale 0,5 and 1 (Clinical Dementia Rating).
# Patients were selected from the Neurology area of four different hospitals. In each center a randomization list for parallel groups was established. Tablets in the three groups had the same aspect so as to preserve the double-blind characteristic of the study.
# For diagnosis of cognitive deterioration and its association to ischaemic cerebrovascular disorders the criteria proposed in 1992 by the California University, USA, were used, in both their probable and possible forms.
# The degree of severity of the cognitive disorder is limited to a borderline, mild condition, according to CDR scale in its points 0.5 and 1. A Hamilton test is carried out in order to detect a depressive condition, which shall contribute to the differential diagnosis of a pseudo dementia.
# The Barthel index was used for evaluation of everyday life.
# During the initial period a washing in medicine intake was made, in the weeks −4 to 0, the latter being the baseline for those drugs considered to be vasoactive or nootropic.
# The observation period lasted 16 weeks, so patients were randomized in three groups which received as double-blind treatment:
# Idebenone 45 mg, twice a day.
# Nimodipine 30 mg, twice a day.
# Idebenone 45 mg+Nimodipine 30 mg, twice a day.
# Therapeutic efficacy criteria were based on the results of Folstein's, CDR and Barthel's scales and Global Clinical Impression (GCI). In order to evaluate therapeutic efficacy between the group receiving the combined dosage and the groups receiving the idebenone or nimodipine alone, a statistically significant improvement in one of the following criteria should exist: […]
Compound,delivery to tissues [1],accumulation after repeated doses [2],Global Clinic Impression [3],"BARTHEL's test, final mark [3]","CDR test, final mark [3]","FOLSTEIN's test, final mark [3]","BARTHEL's test, initial mark [3]","FOLSTEIN's test, initial mark [3]","CDR test, initial mark [3]"
"COC1=C(OC)C(=O)C(CCCCCCCCCCO)=C(C)C1=O [Group A, 6-(10-hydroxydecil)-2,3-dimethoxy-5-methyl-1,4-benzoquinone]","widely delivered to different tissues, including the brain",Accumulation does not occur,5.0,87.6,0.64,24.8,87.2,22.8,0.68
"COCCOC(=O)C1=C(C)NC(C)=C(C(=O)OC(C)C)C1c1cccc([N+](=O)[O-])c1 (stereo not shown) [Group B, 1,4-dyhidro-5-(isopropoxycarbonyl)-2,6-dimethyl-4-(3-nitrophenyl)-3-pyridine-carboxylate of 2-methoxyethyl]",–,–,4.9,81.1,0.63,23.9,80.7,22.5,0.67
